Assay results as given in US10500146B2, “Composition for skin whitening comprising amorphigeni as effective ingredient” (INDUSTRY-ACADEMIC COOPERATION FOUNDATION GYEONGSANG …, priority 2015, dated 2019).

What was measured:
Format in all cases: cell-based
[1] = test system: B16F10 mouse melanoma cells; assay: Cell viability (MTT analysis); details: amorphigeni at 100 nM and 1600 nM, 24 hours, FIG. 2
Method: B16F10 cells were cultured for 24 hours in a 96-well plate. Thereafter, they were treated with amorphigeni at various concentrations, and cultured for 24 hours. Subsequently, a MTT solution (5 μg/mL) was added to the cells, which were then cultured for 3 hours. After removing the medium and treating the cells with DMSO, the cells were cultured for 20 minutes. By using a microplate reader (Bio-Rad), absorbance at 595 nm was measured.
In Example 1, to find out functional plant metabolites which induce depigmentation in melanin cells, amorphigeni was isolated from roots of Amorpha fruticosa (FIG. 1). To determine the cytotoxicity of amorphigeni, B16F10 cells were treated with amorphigeni at various concentrations followed by culture for 24 hours. Then, based on MTT (3-(4,5-dimethylthiazol-2-yl)-2,5-diphenyltetrazolium bromide) analysis, cell viability was determined.

[2] = test system: B16F10 mouse melanoma cells; assay: Cell cycle measurement, PI staining, flow cytometer; details: FIG. 3
[3] = test system: B16F10 mouse melanoma cells; assay: Measurement of melanin content
Method: Measurement of melanin content was carried out by slightly modifying the method by Yang et al. (Yang et al., 2006, Acta pharmacologica Sinica 27, 1467-73). Specifically, B16F10 cells were inoculated into a 6-well plate and cultured for 24 hours. Thereafter, the cells were treated with amorphigeni and α-MSH, each at 1 μM, followed by culture for 48 hours. The cultured cells were collected after being subjected to trypsinization and dissolution in 1 N NaOH containing DMSO for 24 hours at 65° C. By using a microplate reader (Bio-Rad), melanin content was measured at 415 nm.
In order to see whether or not amorphigeni can suppress the pigmentation induced by α-MSH (melanocyte-stimulating hormone), B16F10 cells were treated with α-MSH and amorphigeni, either separately or simultaneously, followed by incubation for 72 hours. […] Namely, it was able confirm that, by reducing melanin content, amorphigeni of the present invention can suppress […].
Furthermore, after treating B16F10 melanin cells with α-MSH, amorphigeni, and 3MA all together for 48 hours, the melanin content and oxidation level of L-DOPA were measured (***P≤0.001).
In order to confirm whether or not amorphigeni causes degradation of melanosomes which have been previously produced by α-MSH, B16F10 melanin cells were treated for 48 hours with α-MSH to have synthesis of melanosomes. Thereafter, the cells were treated with amorphigeni for 48 hours, and melanin content was measured.
Furthermore, in order to see whether or not amorphigeni causes degradation of previously produced melanosomes via autophagy, B16F10 melanin cells were treated with α-MSH for 48 hours to have synthesis of melanosome. After that, the cells were treated with 3MA as an autophagy inhibitor for 48 hours. Then, the melanin content and protein expression level of tyrosinase and PMEL were measured (ns=no significance, *P≤0.05, **P≤0.01, ***P≤0.001).

Q: With C=C(CO)C1Cc2c(ccc3c2OC2COc4cc(OC)c(OC)cc4C2C3=O)O1 (stereo not drawn) [amorphigeni] as the molecule, how does the “cytotoxicity (cell viability, MTT)” value [1] read?
A: low cytotoxicity

Q: And the “cell death (cell cycle, PI staining)” value [2]?
A: without inducing any cell death

Q: And the “content of the previously formed melanin” value ([3]; α-MSH 48 hours, then amorphigeni 48 hours, FIG. 10)?
A: effectively lowered

Q: And the “melanin content (previously formed)” value ([3]; α-MSH 48 hours, then amorphigeni and 3MA 48 hours, versus α-MSH and amorphigeni, FIG. 11)?
A: increased again

Q: And the melanin content ([3]; α-MSH and amorphigeni together versus α-MSH only, 72 hours, FIG. 4A)?
A: tend to decease

Q: What about the melanin content ([3]; α-MSH, amorphigeni and 3MA together, 48 hours, versus α-MSH and amorphigeni, FIG. 9A) of the same molecule?
A: increased again
